Reference: paper PMC8626090, “A conserved neuropeptide system links head and body motor circuits to enable adaptive behavior” (eLife, 2021)
Where two headings read alike, the source gives them in different places. No end group written: not given here.

Key:
[1] = system: CHO cells transfected with an empty pcDNA3.1 vector; experiment: GPCR activation assay, control cells transfected with empty pcDNA3.1 vector; type: cell-based, Chinese hamster; settings: in vitro controls
Method: (§1) To obtain direct evidence for NLP-12 activation of CKR-1, we used an in vitro bioluminescence-based approach. CKR-1 was expressed in Chinese hamster ovarian (CHO) cells stably expressing the promiscuous G-protein alpha subunit Gα16 and a bioluminescent calcium indicator, aequorin ([Caers et al., 2014]). The NLP-12 precursor gives rise to two distinct mature peptides, NLP-12–1 and NLP-12–2.
(§2) The GPCR activation assay was performed as previously described ([Caers et al., 2014]; [Peymen et al., 2019]; [Van Sinay et al., 2017]). Briefly, CHO-K1 cells stably expressing the luminescent Ca^2+ indicator aequorin and the promiscuous Gα16 protein (ES-000-A24 cell line, PerkinElmer) were transiently transfected with ckr-1/pcDNA3.1, ckr-2/pcDNA3.1, or empty pcDNA3.1 vector. Cells were transfected with Lipofectamine LTX and Plus reagent (Invitrogen) at 60–80% confluency and grown overnight at 37°C. After 24 hr, they were shifted to 28°C overnight. On the day of the assay, transfected cells were collected in bovine serum albumin (BSA) medium (DMEM/F12 without phenol red with L-glutamine and 15 mM HEPES, Gibco, supplemented with 0.1% BSA), at a density of 5 million cells per ml, and loaded with 5 µM coelenterazine h (Invitrogen) for 4 hr at room temperature. Compound plates containing synthetic peptides in DMEM/BSA were placed in a MicroBeta LumiJet luminometer (PerkinElmer). After loading, the transfected cells were added at a density of 25,000 cells/well, and luminescence was measured for 30 s at a wavelength of 469 nm. After 30 s, 0.1% triton X-100 (Merck) was added to lyse the cells, resulting in a maximal Ca^2+ response that was measured for 30 s. To constitute concentration-response curves of NLP-12 peptides, peptide concentrations ranging from 1 pM to 10 µM were tested in triplicate on 2 independent days.

[2] = target: T1, CKR-1 (Caenorhabditis elegans, UniProt P91487); experiment: GPCR activation assay, CKR-1 (aequorin bioluminescence calcium, CHO-K1 Gα16); type: cell-based; settings: for ratio of total calcium response: in vitro controls, CKR-1
T1 sequence (P91487 1-421): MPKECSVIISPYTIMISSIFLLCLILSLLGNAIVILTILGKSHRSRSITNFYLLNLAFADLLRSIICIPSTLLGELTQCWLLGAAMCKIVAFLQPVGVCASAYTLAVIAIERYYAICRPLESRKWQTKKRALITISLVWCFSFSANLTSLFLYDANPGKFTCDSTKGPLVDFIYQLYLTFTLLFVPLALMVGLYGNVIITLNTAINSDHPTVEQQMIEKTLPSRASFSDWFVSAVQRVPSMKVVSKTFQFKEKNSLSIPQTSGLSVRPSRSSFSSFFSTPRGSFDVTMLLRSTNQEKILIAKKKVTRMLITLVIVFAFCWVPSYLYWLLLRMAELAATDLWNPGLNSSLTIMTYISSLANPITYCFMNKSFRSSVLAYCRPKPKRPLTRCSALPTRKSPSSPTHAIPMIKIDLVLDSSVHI
Method: as §1, §2

[3] = target: CKR-2 (Caenorhabditis elegans, UniProt M1Z894); experiment: GPCR activation assay, CKR-2 (aequorin bioluminescence calcium, CHO-K1 Gα16); type: cell-based; settings: for ratio of total calcium response: in vitro controls, CKR-2
CKR-2, sequence (M1Z894 entry or part of it): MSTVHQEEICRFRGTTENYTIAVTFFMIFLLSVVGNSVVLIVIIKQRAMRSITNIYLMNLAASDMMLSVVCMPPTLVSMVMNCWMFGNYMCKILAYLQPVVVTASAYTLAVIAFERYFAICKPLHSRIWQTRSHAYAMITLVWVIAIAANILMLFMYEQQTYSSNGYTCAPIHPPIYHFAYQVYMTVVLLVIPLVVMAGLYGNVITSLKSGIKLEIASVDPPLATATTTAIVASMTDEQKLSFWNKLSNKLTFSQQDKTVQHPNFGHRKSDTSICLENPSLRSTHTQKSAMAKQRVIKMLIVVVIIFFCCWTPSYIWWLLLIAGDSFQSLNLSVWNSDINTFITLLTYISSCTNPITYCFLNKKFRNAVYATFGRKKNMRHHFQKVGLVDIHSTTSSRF
Method: as §1, §2

[4] = system: SMD neurons, Caenorhabditis elegans; settings: in vivo
[5] = CHO-K1 cells, aequorin/Gα16, 1 pM to 10 µM, triplicate on 2 independent days (n=6), luminescence 469 nm, 30 s, read-out: EC50 (CKR-1 activation, calcium response)
[6] = concentration-response curve fit, n=6, read-out: 95% confidence interval (EC50, CKR-1 activation)
[7] = read-out: 95% confidence interval (EC50, CKR-2 activation), concentration-response curve fit, n=6
[8] = read-out: EC50 (CKR-2 activation, calcium response), CHO-K1 cells, aequorin/Gα16, 1 pM to 10 µM, triplicate on 2 independent days (n=6), luminescence 469 nm, 30 s

`Nc1ncnc2c1ncn2[C@@H]1O[C@H](COP(=O)(O)OP(=O)(O)OP(=O)(O)O)[C@@H](O)[C@H]1O` [ATP] was tested, and the “ratio of total calcium response” value ([1]; replicate 1) was 0.9381, the “ratio of total calcium response” value ([1]; replicate 2) was 0.6003 and the “ratio of total calcium response” value ([1]; replicate 3) was 0.6268. For the same compound, the “ratio of total calcium response” value ([1]; replicate 4) was 0.814, the “ratio of total calcium response” value ([1]; replicate 5) was 0.8225 and the “ratio of total calcium response” value ([2]; replicate 1) was 0.6901. For the same compound, the “ratio of total calcium response” value ([2]; replicate 2) was 0.479, the “ratio of total calcium response” value ([2]; replicate 3) was 0.5419 and the “ratio of total calcium response” value ([2]; replicate 4) was 0.7243. The “ratio of total calcium response” value ([2]; replicate 5) was 0.7237, the “ratio of total calcium response” value ([3]; replicate 1) was 0.7753 and the “ratio of total calcium response” value ([3]; replicate 2) was 0.8315. The “ratio of total calcium response” value ([3]; replicate 3) was 0.845, the “ratio of total calcium response” value ([3]; replicate 4) was 0.8913 and the “ratio of total calcium response” value ([3]; replicate 5) was 0.8945.
In the case of `NCCc1c[nH]cn1` [histamine], the “reorientations during food searching upon SMD silencing” value [4] is reported as “reduced reorientations with SMD silencing in transgenics”.
DGYRPLQF-NH2 [NLP-12-2, DGYRPLQFamide] gave an EC50 [2, 5] of 1.9 nM, an EC50 [2, 6] of 0.93 to 3.77 nM and an EC50 [3, 7] of 6.43 to 16.7 nM. The EC50 [3, 8] was 10.2 nM.
For DYRPLQF-NH2 [NLP-12-1, DYRPLQFamide], the EC50 [2, 5] was 3.5 nM, the EC50 [2, 6] was 1.79 to 7.07 nM and the EC50 [3, 7] was 5.16 to 12.5 nM. The EC50 [3, 8] was 8 nM.
